Measured values from patent US12606570B2, “Deuterated compounds and imaging agents for imaging huntingtin protein” (CHDI Foundation, Inc., priority 2021, dated 2026).

The compounds below were run against T1, Exon1-Q46 protein aggregates (MBP-HTT(1-89)Q46-His(6×)) (Homo sapiens, UniProt P42858, INS38QQQQQQQQQQQQQQQQQQQQQQQQQ) (assay: Exon1-Q46 radioligand binding assay (RBA)). Conditions: displacement of 0.3 nM [3H3-methyl]-5-((5-methoxypyridin-2-yl)methoxy)-2-(pyrazin-2-yl)benzo[d]oxazole; 1 μM Exon1-Q46 aggregates; read-out: Potency Range.
T1 construct: MBP-HTT(1-89)Q46-His(6×); MBP (N, cleaved yes); His(6×) (C); made in house
T1 sequence (P42858 with tags, fused parts or gaps with the stated changes limits assumed): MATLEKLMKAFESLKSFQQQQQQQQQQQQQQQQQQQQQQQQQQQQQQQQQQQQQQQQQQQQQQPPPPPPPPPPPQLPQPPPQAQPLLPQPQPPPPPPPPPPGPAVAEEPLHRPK
Method: Exon1-Q46 Radioligand Binding Assay
For radioligand binding assays (RBA), MBP-HTT(1-89)Q46-His(6×) (“Exon1-Q46”) protein was generated based on a previous publication (Scherzinger et al. Cell, Vol. 90, 549-558, Aug. 8, 1997). For experiments, 30 μM MBP-Exon1-Q46 was incubated with 150 μg/mL thrombin in assay buffer (150 mM NaCl, 50 mM Tris pH 8.0) and 2 mM CaCl2 for 16 hours at 37° C. Aggregated Exon1-Q46 was pelleted by centrifugation for 5 minutes at 13,000 rpm in a bench top centrifuge and re-dissolved in the same volume of assay buffer. Test compounds were prepared by titration in DMSO at 11 concentrations from 63 μM to 2 nM. For the RBA, Exon1-Q46 protein aggregates and test compounds were pre-incubated in assay buffer for 20 minutes at room temperature, in 100 μL/well in a 96-well plate (pp, round bottom). Then, ligand was added in 50 µL/well and incubated for 60 minutes at 37° C. Final assay concentrations were […] test compound, 1 μM Exon1-Q46 protein (equivalent monomer concentration), and 0.3 nM ligand [^3H3-methyl]-5-((5-methoxypyridin-2-yl)methoxy)-2-(pyrazin-2-yl)benzo[d]oxazole. Samples were transferred onto GF/B filter plates and washed 2× with 200 μL PBS using a Filtermate Harvester. After drying filter plates for 1 hour at 55° C., the back of the plates were sealed with foil and 30 μL/well scintillation fluid (Packard MicroScint 40) added, incubated for 15 minutes in the dark, and counted in a MicroBeta reader. For analysis, replicate data from independent assay plates were normalized towards 0% and 100% inhibition using control wells of vehicle (0% inhibition) and […] unlabelled [^3H3-methyl]-5-((5-methoxypyridin-2-yl)methoxy)-2-(pyrazin-2-yl)benzo[d]oxazole (100% inhibition). IC50 values were determined with a sigmoidal inhibition model with four variables (top, bottom, slope, IC50) in a global fit using the normalized replicate data.
The results for various example compounds were as provided in the table below (+++<100 nM; ++100-500 nM; +>500 nM; ND: not determined): […]

Compound | IC50 [µM]
[2H]C([2H])(F)C([2H])([2H])Oc1ccc(COc2cnc3oc(-c4cc(C)ncn4)nc3c2)nc1 [Compound 1-1, 6-((5-(2-Fluoroethoxy-1,1,2,2-d4)pyridin-2-yl)methoxy)-2-(6-methyl-pyrimidin-4-yl)oxazolo[5,4-b]pyridine] | < 0.1
Cc1ccc(S(=O)(=O)OCCOc2ccc(COc3cnc4oc(-c5cc(C)ncn5)nc4c3)nc2)cc1 [Compound 1-2, 2-((6-(((2-(6-Methylpyrimidin-4-yl)oxazolo[5,4-b]pyridin-6-yl)oxy)-methyl)pyridin-3-yl)oxy)ethyl 4-methylbenzenesulfonate] | < 0.1
COc1cnc(COc2cnc3oc(-c4cc(C)ncn4)nc3c2)c(F)c1 [Compound 1-3, 6-((3-Fluoro-5-methoxypyridin-2-yl)methoxy)-2-(6-methylpyrimidin-4-yl)oxazolo[5,4-b]pyridine] | < 0.1
COc1ccc(COc2cnc3oc(-c4ccnc(C)n4)nc3c2)nc1 [Compound 2-1] | < 0.1
COc1ccc(COc2cnc3oc(-c4cc(OCCF)ncn4)nc3c2)nc1 [Compound 3-1, 4-(2-Fluoroethoxy)-6-{6-[(5-methoxypyridin-2-yl)methoxy]-[1,3]oxazolo[5,4-b]pyridin-2-yl}pyrimidine] | < 0.1
COc1ccc(COc2cnc3oc(-c4cc(C)ncn4)nc3c2)nc1 [Compound 4-1, 4-{6-[(5-Methoxypyridin-2-yl)methoxy]-[1,3]oxazolo[5,4-b]pyridin-2-yl}-6-methylpyrimidine] | < 0.1
Cc1cc(-c2nc3cc(OCc4ccc(OCCF)cn4)cnc3o2)ncn1 [Compound 5-1, 6-((5-(2-Fluoroethoxy)pyridin-2-yl)methoxy)-2-(6-methylpyrimidin-4-yl) oxazolo[5,4-b]pyridine] | < 0.1
C=CCOc1ccc(COc2cnc3oc(-c4cc(C)ncn4)nc3c2)nc1 [Compound 5-2, 6-((5-(Allyloxy)pyridin-2-yl)methoxy)-2-(6-methylpyrimidin-4-yl) oxazolo[5,4-b]pyridine] | < 0.1
Cc1cc(-c2nc3cc(OCc4ccc(OCF)cn4)cnc3o2)ncn1 [Compound 5-3, 6-((5-(Fluoromethoxy)pyridin-2-yl)methoxy)-2-(6-methylpyrimidin-4-yl) oxazolo[5,4-b]pyridine] | < 0.1
